Measurements as given in patent US8410150B2, “Inhibitors of carnitine palmitoyltransferase and treating cancer” (University Health Network, priority 2007, dated 2013).

Target: T1, human CPT1A (Homo sapiens, UniProt P50416)
T1 construct: made in house; host or cells: Saccharomyces cerevisiae (pESC-trp) or cultured mammalian cells (pCDNA3.1); mitochondrial extract
T1 sequence (P50416 1-773): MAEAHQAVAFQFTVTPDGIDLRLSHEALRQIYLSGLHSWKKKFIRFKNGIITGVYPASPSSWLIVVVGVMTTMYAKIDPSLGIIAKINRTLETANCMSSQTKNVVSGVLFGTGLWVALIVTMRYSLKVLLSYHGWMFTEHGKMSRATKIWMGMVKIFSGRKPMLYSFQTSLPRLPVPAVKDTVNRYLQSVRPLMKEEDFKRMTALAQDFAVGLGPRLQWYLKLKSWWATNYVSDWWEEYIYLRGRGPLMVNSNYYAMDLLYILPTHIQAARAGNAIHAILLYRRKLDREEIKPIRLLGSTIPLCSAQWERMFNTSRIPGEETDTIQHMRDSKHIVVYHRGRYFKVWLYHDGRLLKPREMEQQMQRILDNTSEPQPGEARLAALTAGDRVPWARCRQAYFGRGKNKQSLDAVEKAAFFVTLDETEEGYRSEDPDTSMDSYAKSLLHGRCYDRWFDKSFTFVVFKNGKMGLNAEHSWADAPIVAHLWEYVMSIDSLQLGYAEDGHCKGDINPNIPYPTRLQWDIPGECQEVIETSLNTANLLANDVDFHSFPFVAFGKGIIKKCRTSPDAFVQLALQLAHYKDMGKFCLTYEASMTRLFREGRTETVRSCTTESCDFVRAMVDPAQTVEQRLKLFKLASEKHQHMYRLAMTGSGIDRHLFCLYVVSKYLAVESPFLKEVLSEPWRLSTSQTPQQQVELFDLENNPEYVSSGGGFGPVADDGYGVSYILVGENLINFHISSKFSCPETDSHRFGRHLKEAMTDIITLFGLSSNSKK
Assay: Human CPT1A LC/MS assay
Type: biochemical
Description: Nucleotide sequences encoding human CPT1 enzymes were individually cloned into the yeast expression vector pESC-trp at the Cla1 (5′ terminus) and Pac1 (3′ terminus) restriction sites by PCR amplification of the open reading frame using oligonucleotide primers designed to encode the wild-type CPT1 protein sequence. Standard molecular biology techniques were used to transform and express the CPT1 proteins in the yeast Saccharomyces cerevisiae. The yeast cells were lysed by enzymatic degradation of the cell wall by Zymolase, and the mitochondria were isolated by standard biochemical techniques. The integrity of the isolated mitochondria was monitored by determining the activity of succinate dehydrogenase in the mitochondrial preparations. The mitochondrial extracts were stored at −80° C. in buffer containing 10 mM HEPES pH 7.4 and 250 mM sucrose.
Human CPT1 (A, B, C) genes were additionally cloned into the pCDNA3.1 vector individually for expression in cultured mammalian cells. Cells expressing the exogenous CPT1A were identified and grown under standard conditions. Mammalian cells were harvested, and mitochondrial extracts prepared using standard biochemical methods. The mitochondrial extracts were stored at −80° C. in buffer containing 10 mM HEPES pH 7.4 and 250 mM sucrose.
Assays were performed in 96-well plate format. Each 100 μL reaction contained 40 mM KCl, 50 mM TrisHCl pH 7.5, and 250 mM mannitol (Assay Buffer), and 1.6 μg protein of an extract, 20 μM palmitoyl-CoA, 50 μM L-carnitine, and 10 ug/mL BSA. Reactions were incubated at room temperature and stopped after 10 minutes by extraction with 200 μL of water saturated n-butanol containing myristoyl carnitine (500 nM) as an internal standard. The samples were thoroughly mixed, and the phases separated by centrifugation. Samples were prepared for analysis with a 10 fold dilution of the n-butanol phase containing the reaction product palmitoyl carnitine into a 50:50 (acetonitrile:water) solvent for analysis. […] of prepared sample was separated on a Phenomenex Jupiter 5μ C4 reverse-phase column using an Agilent 1100 HPLC with a gradient from 50% acetonitrile (0.5% acetic acid) to 100% acetonitrile and quantified by detection with a Bruker Esquire 3000plus mass spectrometer. The abundance of the palmitoyl carnitine product was determined relative to the internal standard and the actual quantity of palmitoyl carnitine can be determined from a standard curve prepared using the n-butanol solution containing the internal standard.
Compounds were evaluated in two formats, a screening format, and a dose response format. The screening format was performed by adding 25 μL compound in 20% DMSO and Assay Buffer to 25 μL of extract containing […] and Assay Buffer, followed by a 10 minute incubation at room temperature. 50 μL of 40 μM palmitoyl-CoA in Assay Buffer was added to the reaction mixture, mixed and incubated for 10 minutes at room temperature. A negative control for activity was also performed where the carnitine was omitted from the reaction. A positive control for activity was also performed by omitting compound from the solution containing 20% DMSO and Assay Buffer. The reaction mixture was extracted and analyzed as described above. The inhibition by compound was determined by comparing the control relative activity to the relative activity observed in wells containing the compound. Relative activity was determined by subtracting the relative intensity (area palmitoyl carnitine/area myristoyl carnitine) observed in the negative control from the relative intensity observed in the experimental well, and dividing by the relative activity observed in the positive control.
[formula] Compound characterization by dose response format was performed using the above described assay conditions and a 16 point compound titration in 2 fold compound dilution steps. The DMSO concentration was kept constant at 20% (v/v) for all compound concentrations.

[1] = human CPT1A LC/MS assay, dose response format

SMILES: C[N+](C)(C)C[C@@H](CC(=O)[O-])NC(=O)C(F)(F)c1ccccc1 [Example S69, (R)-3-(2,2-difluoro-2-phenylacetamido)-4-(trimethylammonio)butanoate]
- IC50 [1]: 100 to 1000 µM

SMILES: CCCCCCCC#Cc1ccc(NS(=O)(=O)N[C@H](CC(=O)[O-])C[N+](C)(C)C)cc1 [Example S104, (R)-3-(N-(4-(non-1-ynyl)phenyl)sulfamoylamino)-4-(trimethylammonio) butanoate]
- IC50 [1]: 1 to 10 µM

SMILES: C[N+](C)(C)C[C@@H](CC(=O)[O-])NC(=O)c1ccc(CSCc2ccccc2)o1 [Example S56, (R)-3-(5-(benzylthiomethyl)furan-2-carboxamido)-4-(trimethylammonio)-butanoate]
- IC50 [1]: 1 to 10 µM

SMILES: Cc1nc(-c2cnccn2)sc1C(=O)N[C@H](CC(=O)[O-])C[N+](C)(C)C [Example S51, (R)-3-(4-methyl-2-(pyrazin-2-yl)thiazole-5-carboxamido)-4-(trimethyl-ammonio)butanoate]
- IC50 [1]: > 2500 µM

SMILES: C[N+](C)(C)C[C@H](N)CC(=O)[O-] [L-aminocarnitine, (R)-3-amino-4-(trimethylammonio)butanoate, reference compound]
- IC50 (dose response assay, n=17): 7 ± 2.5 µM

SMILES: CCCCCCCCc1ccc(N(C)S(=O)(=O)N[C@H](CC(=O)O)C[N+](C)(C)C)cc1 [Example S93, (R)-3-(N-methyl-N-(4-octylphenyl)sulfamoylamino)-4-(trimethylammonio)-butanoate]
- IC50 [1]: 10 to 100 µM

SMILES: CCCCCCOc1cccc(C#Cc2ccc(C(=O)N[C@H](CC(=O)[O-])C[N+](C)(C)C)o2)c1 [Example S122, (R)-3-(5-((3-(hexyloxy)phenyl)ethynyl)furan-2-carboxamido)-4-(trimethylammonio)butanoate]
- IC50 [1]: 1 to 10 µM

SMILES: C[N+](C)(C)C[C@@H](CC(=O)[O-])NC(=O)c1ccc(COc2cccc3ccccc23)o1 [Example S58, (R)-3-(5-((naphthalen-1-yloxy)methyl)furan-2-carboxamido)-4-(trimethyl-ammonio)butanoate]
- IC50 [1]: 1 to 10 µM

SMILES: CCCCCCc1ccc(CCc2ccc(C(=O)N[C@H](CC(=O)O)C[N+](C)(C)C)o2)s1 [Example S119, (R)-3-(5-(2-(5-hexylthiophen-2-yl)ethyl)furan-2-carboxamido)-4-(trimethylammonio)butanoate]
- IC50 [1]: ≤ 1 µM

SMILES: C[N+](C)(C)C[C@@H](CC(=O)[O-])NC(=O)c1cccc(C#Cc2ccccc2)c1 [Example S48, (R)-3-(3-(phenylethynyl)benzamido)-4-(trimethylammonio)butanoate]
- IC50 [1]: 100 to 1000 µM

SMILES: CCCCCc1ccc(C#Cc2ccc(S(=O)(=O)N[C@H](CC(=O)O)C[N+](C)(C)C)s2)cc1 [Example S82, (R)-3-carboxy-N,N,N-trimethyl-2-(5-((4-pentylphenyl)-ethynyl)thiophene-2-sulfonamido)propan-1-aminium 2,2,2-trifluoroacetate]
- IC50 [1]: 1 to 10 µM

SMILES: CCCCCCCCc1ccc(NS(=O)(=O)N[C@H](CC(=O)[O-])C[N+](C)(C)C)cc1 [Example S30, (R)-3-(N-(4-octylphenyl)sulfamoylamino)-4-(trimethylammonio)butanoate]
- IC50 [1]: ≤ 1 µM

SMILES: C[N+](C)(C)C[C@@H](CC(=O)[O-])NC(=O)Nc1cccc(Cc2ccccc2)c1 [Example S86, (R)-3-(3-(3-benzylphenyl)ureido)-4-(trimethylammonio)butanoate]
- IC50 [1]: 100 to 1000 µM

SMILES: Cc1nc(-c2ccccc2)sc1NC(=O)N[C@H](CC(=O)[O-])C[N+](C)(C)C [Example S9, (R)-3-(3-(4-methyl-2-phenylthiazol-5-yl)ureido)-4-(trimethylammonio)-butanoate]
- IC50 [1]: 1000 to 2500 µM

SMILES: CCCCCc1ccc(C#Cc2ccc(C(=O)N[C@H](CC(=O)[O-])C[N+](C)(C)C)o2)cc1 [Example S115, (R)-3-carboxy-N,N,N-trimethyl-2-(5-((4-pentylphenyl)ethynyl)furan-2-carboxamido)propan-1-aminium 2,2,2-trifluoroacetate]
- IC50 [1]: ≤ 1 µM

SMILES: CCCCCCC#Cc1ccc(NS(=O)(=O)N[C@H](CC(=O)[O-])C[N+](C)(C)C)cc1 [Example S106, (R)-3-(N-(4-(oct-1-ynyl)phenyl)sulfamoylamino)-4-(trimethylammonio) butanoate]
- IC50 [1]: 1 to 10 µM

SMILES: CCCCCCc1ccc(C#Cc2ccc(C(=O)N[C@H](CC(=O)O)C[N+](C)(C)C)o2)s1 [Example S118, (R)-3-carboxy-2-(5-((5-hexylthiophen-2-yl)ethynyl)furan-2-carboxamido)-N,N,N-trimethylpropan-1-aminium 2,2,2-trifluoroacetate]
- IC50 [1]: 1 to 10 µM

SMILES: C[N+](C)(C)C[C@@H](CC(=O)O)NC(=O)Nc1ccc(F)c(F)c1F [Example S14, (R)-3-Carboxy-N,N,N-trimethyl-2-(3-(2,3,4-trifluorophenyl)ureido)-propan-1-aminium acetate]
- IC50 [1]: 1000 to 2500 µM

SMILES: CCCCCCCCc1cccc(N(C)S(=O)(=O)N[C@H](CC(=O)O)C[N+](C)(C)C)c1 [Example S113, (R)-3-carboxy-N,N,N-trimethyl-2-(N-methyl-N-(3-octylphenyl)sulfamoylamino)propan-1-aminium 2,2,2-trifluoroacetate]
- IC50 [1]: 1 to 10 µM

SMILES: CCCCCCCCCc1ccc(NS(=O)(=O)N[C@H](CC(=O)[O-])C[N+](C)(C)C)cc1 [Example S105, (R)-3-(N-(4-nonylphenyl)sulfamoylamino)-4-(trimethylammonio)-butanoate]
- IC50 [1]: ≤ 1 µM

SMILES: CCCCCc1ccc(C#Cc2ccc(NS(=O)(=O)N[C@H](CC(=O)[O-])C[N+](C)(C)C)cc2)cc1 [Example S107, (R)-3-(N-(4-((4-pentylphenyl)ethynyl)phenyl)sulfamoylamino)-4-(trimethylammonio)butanoate]
- IC50 [1]: 1 to 10 µM

SMILES: Cc1cccc(C#Cc2ccc(S(=O)(=O)N[C@H](CC(=O)O)C[N+](C)(C)C)s2)c1 [Example S76, (R)-3-carboxy-N,N,N-trimethyl-2-(5-(m-tolylethynyl)thiophene-2-sulfonamido)propan-1-aminium 2,2,2-trifluoroacetate]
- IC50 [1]: 100 to 1000 µM

SMILES: C[N+](C)(C)C[C@@H](CC(=O)O)NC(=O)c1ccc(CS(=O)(=O)Cc2ccccc2)o1 [Example S61, (R)-3-(5-(benzylsulfonylmethyl)furan-2-carboxamido)-4-(trimethyl-ammonio)butanoate 2,2,2-trifluoroacetate]
- IC50 [1]: 100 to 1000 µM

SMILES: CCCCCc1ccc(CCc2ccc(NS(=O)(=O)N[C@H](CC(=O)[O-])C[N+](C)(C)C)cc2)cc1 [Example S108, (R)-3-(N-(4-(4-pentylphenethyl)phenyl)sulfamoylamino)-4-(trimethyl-ammonio)butanoate]
- IC50 [1]: ≤ 1 µM

SMILES: CCCCCCC#Cc1cccc(NS(=O)(=O)N[C@H](CC(=O)[O-])C[N+](C)(C)C)c1 [Example S110, (R)-3-(N-(3-(oct-1-ynyl)phenyl)sulfamoylamino)-4-(trimethylammonio) butanoate]
- IC50 [1]: 10 to 100 µM
